Article PMC8318587, “Structure-guided microbial targeting of antistaphylococcal prodrugs” (eLife, 2021)
“Also recorded” adds a separate entry of the source.

Key:
FrmB = target: T1, FrmB (Staphylococcus aureus, UniProt A0A0H3KFB7); test: 4-Nitrophenyl ester substrate activity assay; type: biochemical; conditions: 1 µM protein, 1 mM substrate, 37°C, A405
T1 construct: made in house; host or cells: E. coli BL21 (DE3)
Experimental: (§1) 4-Nitrophenyl substrate-specific activity was determined in 50 µL reactions containing 25 mM Tris pH 7.5, 250 mM NaCl, 1 mM MnCl2, 10% glycerol, 1 µM protein, and 1 mM 4-nitrophenyl substrate. The tested substrates, 4-nitrophenyl acetate (Sigma, N8130), 4-nitrophenyl butyrate (Sigma N9876), and 4-nitrophenyl trimethylacetate (Sigma 135046), were resuspended in acetonitrile at 100 mM. Reactions without 4-nitrophenyl substrate were preincubated at 37°C for 10 min prior to assay initiation via substrate addition. Conversion of 4-nitrophenyl substrates to 4-nitrophenol was tracked photometrically at 37°C and A405nm. Experiments were performed in triplicate with technical duplicates.

GloB = test: 4-Nitrophenyl ester substrate activity assay; type: biochemical, Staphylococcus aureus; conditions: 1 µM protein, 1 mM substrate, 37°C, A405
Experimental: as §1

SaFrmB [1] = target: T2, SaFrmB (Staphylococcus aureus, UniProt A0A0H3KFB7); test: Esterase substrate specificity, fluorogenic SAR library kinetics; type: biochemical; conditions: for In vitro activity (catalytic efficiency) for FrmB, in words: fluorogenic ester substrate; for Km: SaFrmB 15 µg/mL, pH 7.5, 37°C
T2 construct: made in house; host or cells: E. coli BL21 (DE3)
T2 sequence (A0A0H3KFB7 1-253): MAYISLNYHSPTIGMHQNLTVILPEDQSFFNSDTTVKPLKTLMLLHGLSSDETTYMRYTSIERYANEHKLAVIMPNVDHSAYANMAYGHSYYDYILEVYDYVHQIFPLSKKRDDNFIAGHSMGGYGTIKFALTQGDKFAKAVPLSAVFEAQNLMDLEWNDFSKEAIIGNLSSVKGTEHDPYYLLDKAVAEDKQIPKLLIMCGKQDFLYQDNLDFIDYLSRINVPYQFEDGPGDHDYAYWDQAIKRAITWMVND
Experimental: (§2) Kinetic measurements were performed according to [White et al., 2018] with minor variation. Lyophilized human and mouse sera were resuspended according to manufacturer instructions in highly pure, filtered water at protein concentrations of 85 mg/mL and 70 mg/mL, respectively. One milliliter of resuspended serum was added to a 24 mL mastermix for a final concentration of 31.25 mM Tris pH 7.5, 312.5 mM NaCl, 1.25 mM MgCl2, 12.5% glycerol, and 3.4 mg/mL or 2.8 mg/mL protein for human and mouse serum, respectively. For purified proteins, 5 mL of a 75 µg/mL stock was added to yield a 20 mL mastermix containing 31.25 mM Tris pH 7.5, 312.5 mM NaCl, 1.25 mM MgCl2, 12.5% glycerol, and 18.75 µg/mL protein. Mastermix was stored on ice when not in use. Twenty microliters of mastermix was transferred to a black, 96-well half area microplate (Corning, CLS3993) and prewarmed at 37°C. Fluorogenic substrates were prepared as 10 mM stock solutions in 100% DMSO and were diluted in water to a starting concentration of 500 µM. Enzyme catalyzed substrate hydrolysis was initiated by addition of 5 µL substrate dilution in technical duplicate to the prewarmed serum or protein solution. Final assay concentrations were as follows: 25 mM Tris pH 7.5, 250 mM NaCl, 1 mM MgCl2, 10% glycerol, and protein at a concentration of 2.72 mg/mL (human serum), 2.24 mg/mL (mouse serum), or 15 µg/mL (FrmB, GloB). The resulting change in fluorescence (λex = 485 nm, λem = 520 nm) was followed for 15 min at 37°C, collecting data every 30 s on a FLUOstar Omega microplate reader (BMG Labtech). Fluorescence measurements were converted to molar concentrations using a fluorescein standard curve (2.5 nmol–0.6 pmol). The initial rates of reaction were measured three independent times with two technical replicates per measurement and fit to a line using GraphPad Prism (GraphPad Software, La Jolla, CA). Initial rates of reaction were plotted versus the concentration of substrate and fit to a standard Michaelis–Menten equation (v = Vmax[S]/(Km + [S])), yielding estimates of Vmax and Km. Values for kcat and kcat/Km were calculated based on amount of enzyme added when purified enzymes were used.

SaGloB [2] = target: T3, SaGloB (Staphylococcus aureus, UniProt P0DY75); test: as above; type: biochemical; conditions: for kcat/kuncat / Km: SaGloB; for kcat/kuncat: normalised to uncatalysed hydrolysis rate; for In vitro activity (catalytic efficiency) for GloB, in words / Km: fluorogenic ester substrate
T3 sequence (P0DY75 1-207): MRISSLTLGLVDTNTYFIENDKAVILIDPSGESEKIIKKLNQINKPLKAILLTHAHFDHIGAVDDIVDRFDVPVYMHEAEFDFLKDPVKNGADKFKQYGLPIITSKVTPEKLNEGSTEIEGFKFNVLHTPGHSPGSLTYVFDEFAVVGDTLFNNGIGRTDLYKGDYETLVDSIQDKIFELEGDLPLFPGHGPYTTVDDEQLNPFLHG
Experimental: as §2

human sera = test: Esterase substrate specificity, fluorogenic SAR library kinetics in serum; type: in vitro ADME
Experimental: as §2

mouse sera = test: as above; type: in vitro ADME
Experimental: as §2

S. aureus = test: Microfluidics live cell imaging of pro-fluorescent substrate activation; type: cell-based, Staphylococcus aureus; conditions: 10 µM pro-fluorescent substrate, 37°C; for Intracellular activation (fluorescence) in live S. aureus, in words: 30 min of observation
Experimental: Overnight cultures of S. aureus were grown in LB media, back diluted 1:500, and grown to early exponential phase (OD600 0.1–0.15), then washed in 1× PBS, and loaded on a bacterial CellASIC ONIX2 microfluidic plate. Prior to cell loading, the microfluidics plate lines were flushed with 1× PBS + 1% DMSO or 10 µM fluorescent pro-substrate in 1× PBS + 1% DMSO, and the plate was preincubated at 37°C. The microfluidics plate was loaded onto a Nikon Ti-E inverted microscope (Nikon Instruments, Inc) equipped with a 100× Plan N (N.A. = 1.45) Ph3 objective, SOLA SE Light Engine (Lumencor), heated control chamber (OKO Labs), and an ORCA-Flash4.0 sCMOS camera (Hammamatsu Photonics). The GFP filter set was purchased from Chroma Technology Corporation. Cells were loaded into the chamber until a single field of view contained 50–150 cells or cell clusters. […] Images were acquired every two min for a total of 44 min, and all experiments were undertaken at 37°C. The phase-contrast exposure time was kept constant at 200 ms, and the fluorescent channel exposure time was kept constant at 500 ms. For fluorescent images, the gain remained constant across all experiments. Image capture and analysis was performed using Nikon Elements Advanced Research software. Individual cells or clusters of cells were auto detected in the fluorescent channel using the intrinsic background fluorescence of each cell. […] Fluorescent intensity for each individual cell or cluster of cells was measured through the duration of the experiment and normalized to the area of the identified cell to yield the mean fluorescent intensity. Background cell autofluorescence was corrected by subtracting the average fluorescence across all identified objects from t = 0 through t = 10. Each experiment was performed in duplicate, with >50 individual cells or clusters analyzed in each experiment.

SaFrmB [3] = target: T2, SaFrmB; test: Glyoxalase II activity assay (DTNB coupled); type: biochemical; conditions: 1 mM substrate, 37°C, 412 nm
Experimental: (§3) Glyoxalase II activity was assessed as previously with minor changes ([Mikati et al., 2020]; [Stamp et al., 2010]). Briefly, reactions were mixed to form a final concentration of 25 mM Tris pH 7.5, 250 mM NaCl, 1 mM MnCl2, 10% glycerol, 200 µM 5,5’-dithiobis(2-nitrobenzoic acid) (DTNB, Sigma D8130), 1 mM D-lactoylglutathione (Sigma L7140), and 0.15–0.63 µg protein (130–550 nM GloB, 100–430 nM FrmB). Protein concentrations were varied to ensure the reaction was linear across protein concentrations. Reactions without D-lactoylglutathione were pre-incubated at 37°C for 10 min prior to assay initiation with the addition of substrate. Release of glutathione from D-lactoylglutathione was quantified spectrophotometrically at 37°C and 412 nm through the conversion of DTNB to TNB. Experiments were performed in triplicate with technical duplicates.

SaGloB [4] = target: T3, SaGloB; test: Glyoxalase II activity assay (DTNB coupled); type: biochemical; conditions: 1 mM substrate, 37°C, 412 nm
Experimental: as §3

SMILES	Hydrolysis of 4-nitrophenyl ester by FrmB, in words (FrmB)	Hydrolysis of 4-nitrophenyl ester by GloB, in words (GloB)	In vitro activity (catalytic efficiency) for FrmB, in words (SaFrmB [1])	In vitro activity (catalytic efficiency) for GloB, in words (SaGloB [2])	Km (human sera) [µM]	Km (mouse sera) [µM]	Km (SaFrmB [1]) [µM]	Intracellular activation (fluorescence) in live S. aureus, in words (S. aureus)	further results
CC(C)(C)C(=O)Oc1ccc([N+](=O)[O-])cc1 [4-nitrophenyl trimethylacetate]	no activity	no detectable activity	–	–	–	–	–	–	–
CCCC(=O)Oc1ccc([N+](=O)[O-])cc1 [4-nitrophenyl butyrate]	modest activity	no detectable activity	–	–	–	–	–	–	–
COCC(=O)OCOc1ccc2c(c1)Oc1cc(OCOC(=O)COC)ccc1C21OC(=O)c2ccccc21 [1O]	–	–	high activity; also recorded: highest catalytic efficiency substrate	high activity; also recorded: highest catalytic efficiency substrate	64.1	> 50	–	–	kcat/kuncat (SaFrmB [1]; SaFrmB): 1.34 103; kcat/kuncat (SaGloB [2]): 38.6 103; Vmax (human sera): 68.6 pmol*min-1*mg sera-1; Time to intracellular fluorescence saturation (S. aureus; images every 2 min): < 2 min
CC(O)C(=O)SCC(NC(=O)CCC(N)C(=O)O)C(=O)NCC(=O)O (stereo not drawn) [S-lactoylglutathione]	–	–	–	–	–	–	–	–	Glyoxalase II activity (hydrolysis of substrate), in words (SaFrmB [3]): lacks appreciable glyoxalase activity; Glyoxalase II activity (hydrolysis of substrate), in words (SaGloB [4]): specific activity comparable to previously characterized microbial type II glyoxalases
CC(=O)Oc1ccc([N+](=O)[O-])cc1 [4-nitrophenyl acetate]	modest activity	no detectable activity	–	–	–	–	–	–	–
CCCCCC(=O)OCOc1ccc2c(c1)Oc1cc(OCOC(=O)CCCCC)ccc1C21OC(=O)c2ccccc21 [3C]	–	–	moderate activity	moderate activity	> 50	> 50	> 50	slowly activates over the duration of the experiment	Km (SaGloB [2]): > 50 µM
CCC(CC)C(=O)OCOc1ccc2c(c1)Oc1cc(OCOC(=O)C(CC)CC)ccc1C21OC(=O)c2ccccc21 [9C]	–	–	poor activity	poor activity	> 50	12.3	> 50	never appreciably activates	Km (SaGloB [2]): > 50 µM; Vmax (mouse sera): 3.18 pmol*min-1*mg sera-1
CCOCCC(=O)OCOc1ccc2c(c1)Oc1cc(OCOC(=O)CCOCC)ccc1C21OC(=O)c2ccccc21 [5O]	–	–	poor activity	moderate activity	35.4	> 50	> 50	never appreciably activates	kcat/kuncat (SaGloB [2]): 17.0 103; Vmax (human sera): 2.25 pmol*min-1*mg sera-1
